From patent publication US20110009335A1, “Anticancer Treatments” (priority 2008, published 2011)

System: MRI-H-121 human renal tumor xenograft
Assay: Aplidine with sorafenib, MRI-H-121 xenograft in athymic nude mice (Example 1)
Format: in vivo
Procedure: Female athymic nude mice (Harlan Sprague Dawley, Madison, Wis.) were utilized for all experiments. Mice were implanted with tumor fragments or a cell suspension when mice were 5 weeks of age. Animals were housed in ventilated rack caging, 5 mice per cage, with food and water ad libitum. The mice were acclimated for 1 week prior to being implanted with tumor fragments or cell suspensions.
Tumor measurements were determined by using Vernier calipers. The formula to calculate volume for a prolate ellipsoid was used to estimate tumor volume (mm^3) from 2-dimensional tumor measurements: Tumor volume (mm^3)=[L×W^2]÷2, where L is the length and it is the longest diameter in mm, and W is the width and it is the shortest diameter in mm of a tumor. Assuming unit density, volume was converted to weight (i.e., 1 mm^3=1 mg).
Body weights were recorded on treatment days and when tumor sizes were measured. In those days wherein the two drugs were administered the same day, the combination therapy groups were treated by co-administering the two drugs at the same time, with no attempt to sequence the treatments.
Aplidine was provided in the form of vials of lyophilized aplidine powder which was reconstituted in Cremophor EL/ethanol/water (CEW) 15/15/70 to a concentration of 0.5 mg/ml. Then the aplidine solution in CEW was diluted in 0.9% Saline to the dosing formulation concentrations, being the final proportion of CEW of 0.18/0.18/0.84.
Tumor size measurements were recorded twice weekly from the treatment initiation until the termination of the study.
Mean, standard deviation and standard error of the mean were determined for tumor volume for all animal groups at all assessments. Student's t test was performed on tumor volumes at each measurement day, including at the end of the study, to determine whether there were any statistically significant differences between combination treatment groups and single monotherapy treatment groups.
Determine the % of tumor growth inhibition, as 100−% T/C, for each of the drugs administered as monotherapy at the doses used in the combinations. % T/C was obtained by comparing the mean tumor weight in the treatment groups (T) to the mean tumor weight in the control group (C) (T/C×100%). • 2. The two scores were added together to determine the “expected response” if each agent produced the same response as it did when administered as monotherapy. • 3. This “expected response” was subtracted from the % of tumor growth inhibition determined for the combination therapy group: • a. A negative number meant that the effect of combining the two drugs was less than additive. • b. If the resulting number was close to zero, the effect of combining the two drugs was determined as additive. • c.

[1] = aplidine 0.040 and/or sorafenib 30 mg/kg/day
[2] = aplidine 0.060 and/or sorafenib 60 mg/kg/day

CNC(=O)c1cc(Oc2ccc(NC(=O)Nc3ccc(Cl)c(C(F)(F)F)c3)cc2)ccn1 [sorafenib]
% T/C on day 14 [1]: 99.7%
% T/C on day 16 [1]: 85.6%
% T/C on day 20 [1]: 62.1%
% T/C on day 27 [1]: 78.7%
% T/C on day 30 [1]: 72.0%
% T/C on day 34 [1]: 66.1%
% T/C on day 37 [1]: 72.5%
% T/C on day 41 [1]: 79.5%
% T/C on day 44 [1]: 77.6%
% T/C on day 48 [1]: 76.1%
% T/C on day 14 [2]: 103.8%
% T/C on day 16 [2]: 85.0%
% T/C on day 20 [2]: 66.5%
% T/C on day 23 [2]: 71.7%
% T/C on day 27 [2]: 70.4%
% T/C on day 30 [2]: 75.6%
% T/C on day 34 [2]: 69.6%
% T/C on day 37 [2]: 71.1%
% T/C on day 41 [2]: 74.7%
% T/C on day 44 [2]: 71.0%
% T/C on day 48 [2]: 71.8%
antitumor activity as single agent (monotherapy) (doses and schedules tested, sorafenib 60 or 30 mg/kg/day): did not reach the NCI criteria for activity
